From US20050032124A1, “Identification of genotype-selective agents for treating Huntington's disease” (priority 2003, published 2005)

Legend:
Type in all cases: cell-based, human
[1] = test system: active, cleaved form of caspase 3; test: Western blot for active caspase-3; conditions: BJ-TERT/LT/ST/RAS^V12 cells
Experimental: BJ-TERT/LT/ST/RAS^V12 cells were seeded prior to the experiment at 5×10^5 cells in 60 mm dishes. The cells were treated with 5 μg/ml erastin (9 μM) for 2, 4, 6, 8 or 10 hours. One dish was maintained for camptothecin treatment (0.4 μg/ml for 24 h) as a positive control. Cells were lysed after each time point in lysis buffer (50 mM HEPES KOH pH […] NaCl, 2 mM EDTA, 0.5% Triton X-100, 1.5 mM Na3VO4, 50 mM NaF, 10 mM sodium pyrophosphate, 10 mM sodium beta-glycerophosphate and protease inhibitor tablet (Roche)). Protein content was quantified using a Biorad protein assay reagent. Equal amounts of protein were resolved on 16% SDS-polyacrylamide gel. The electrophoresed proteins were transblotted onto a PVDF membrane, blocked with 5% milk and incubated with anti-active caspase-3 polyclonal antibody (BD Pharmingen) at 1:1500 dilution overnight at 4° C. The membrane was then incubated in anti-rabbit-HRP (Santa Cruz Biotechnology) at 1:3000 dilution for 1 hour and developed with an enhanced chemiluminescence mixture (NEN life science, Renaissance). To test for equivalent loading in each lane, blots were stripped, blocked, and probed with an anti-eIF-4E antibody (BD Transduction laboratories) at 1:1000 dilution.

[2] = test system: BJ-TERT/LT/ST/RAS^V12 cells; test: DNA fragmentation (DNA ladder)
[3] = test system: BJ-TERT/LT/ST/RAS^V12 cells; test: Nuclear morphology assay; conditions: 18 hours
Text: Applicants sought to characterize the type of cell death induced by CPT and erastin in tumorigenic BJ-TERT/LT/ST/RAS^V12 cells. […] To determine whether erastin or CPT induces apoptosis in their system, Applicants monitored the nuclear morphology of CPT- and erastin-treated tumorigenic cells using fluorescence microscopy. […] Since nuclear morphological change is required of apoptotic cells, Applicants conclude that cell death induced by erastin is non-apoptotic. […] Additionally, nuclei remained intact in erastin-treated tumor cells (FIG. 9).
200,000 tumorigenic BJ-TERT/LT/ST/RAS^V12 cells were seeded in 2 mL on glass coverslips in each well of a six-well dish, treated with nothing (NT), 9 μM erastin or 1.1 μM camptothecin (CPT) in growth medium for 18 hours while incubating at 37° C. with 5% CO2. Nuclei were stained with 25 μg/mL Hoechst 33342 (Molecular Probes) and viewed using an oil immersion 100× objective on a fluorescence microscope.

[4] = test system: BJ-TERT/LT/ST/RAS^V12 cells; test: Block of compound-induced cell death by pan-caspase inhibitor; conditions: 50 μM Boc-Asp(Ome)-fluoromethyl ketone

## CC[C@@]1(O)C(=O)OCc2c1cc1n(c2=O)Cc2cc3ccccc3nc2-1 [Camptothecin]
[1]
  activated caspase 3 (western blot): harbor activated caspase 3
[2]
  DNA fragmentation (formation of a DNA ladder): induces DNA fragmentation
[3]; 1.1 μM camptothecin
  fragmented nuclei, % of total nuclei: 10-20%
[3]; 9 μM erastin or 1.1 μM CPT
  nuclear morphology (karyorhexis and margination of chromatin): karyorhexis and margination of chromatin were clearly visible
[4]
  cell death blocked by pan-caspase inhibitor: partially blocked
